Laboratory results from US10597398B2, “Suppression and regeneration promoting effect of low molecular weight compound on cancer and fibrosis” (NATIONAL UNIVERSITY CORPORATION TOTTORI UNIVERSITY, priority 2015, dated 2020).

What was measured:
[1] = system: cancer stem cells (CD44) in HuH-7 cells; experiment: Inhibitory effect on cancer stem cells (FCM analysis of CD44), Example 2.4; type: cell-based, human; conditions: comparison with IC-2
Experimental: CD44, a cancer stem cell marker, was used as an indicator to examine an inhibitory effect of each compound on cancer stem cells. The concentrations of the respective compounds were as described in FIG. 32. Each control sample used was 0.1% DMSO, a solvent for each compound. In the figures, the “‡” indicates a significant difference of p<0.01.
First, 70 to 90% confluent HuH-7 cells were harvested and seeded at 1.5×10^6 cells per 10-cm cell culture dish. After 24 h, each compound was added to the cells and the mixture was cultured at 37° C. At 48 h after the compound treatment, the cells were harvested from each culture dish. The cells were centrifuged at 1000 rpm and at 4° C. for 3 min to remove a supernatant and were then washed twice with 1 mL of 0.5% FBS/2 mM EDTA/PBS. Next, the cells were suspended in 500 μL of 5% BSA/0.5% FBS/2 mM EDTA/PBS for blocking at 4° C. for 15 min. Then, 5 μL of a mouse anti-human CD44 monoclonal antibody (156-3C11, Cell Signaling Technology Inc., Danvers, Mass.) was added to 500 μL of the cell suspension. The mixture was resuspended and subjected to a primary antibody reaction in a dark room at 4° C. for 30 min. After that, the cells were washed 3 times with 1 mL of 0.5% FBS/2 mM EDTA/PBS. Subsequently, 100 μL of Alexa Fluor 488-labeled IgG (H+L) (ab150113, Abcam Ltd., Cambridge, UK), which had been diluted 200-fold with 5% BSA/0.5% FBS/2 mM EDTA/PBS, was added and the cells were suspended. Then, a secondary antibody reaction was carried out in a dark room at 4° C. for 30 min. After that, the cells were washed 3 times with 1 mL of 0.5% FBS/2 mM EDTA/PBS. Thereafter, the cells were suspended in 500 μL of 0.5% FBS/2 mM EDTA/PBS and were made to pass through a 40 μm-mesh column (Becton, Dickinson and Company, Franklin Lakes, N.J.). A Beckman Coulter-Moflo XDP (Beckman Coulter Inc., Fullerton, Calif.) was used for analysis. Following the analysis, further analysis was conducted by adding 2 μL of 0.25 mg/mL Propidium Iodide (PI). The same experiment was repeated four times.

liver fibrosis = experiment: Non-alcoholic steatohepatitis model mouse (Azan staining); type: in vivo, C57BL/6JHamSlc-ob/ob male mice; conditions: high fat diet 12 weeks, drug for last 6 weeks, IC-2 21.2 mg/kg i.p. 3 times a week, vs vehicle group
Experimental: To induce anesthesia, 1-mL disposable syringe with a 27-G needle was used to intraperitoneally inject, into a mouse, 1 μL/g body weight of a systemic anesthetic somnopentyl (Kyoritsuseiyaku Corporation, Tokyo).
The liver tissue sample, as so resected, was fixed in 4% paraformaldehyde at room temperature for 16 h, embedded in paraffin, and sectioned with a microtome to prepare tissue sections. The tissue sections were subjected to deparaffinization using xylene (Nacalai tesque) and a hydration reaction with ethanol (Nacalai tesque), and were then allowed to stand in 5% potassium dichromate/trichloroacetic acid aqueous solution (Wako Pure Chemical Industries, Ltd.) for 20 min. After washing in running water for 5 min, the tissue sections were stained with Azocarmine G (Wako Pure Chemical Industries, Ltd.) at 60° C. for 1 h, washed with water, and then destained for 3 min in 5% aniline (Nacalai tesque)-containing ethanol solution. Next, 5% acetic acid (Nacalai tesque)-containing ethanol solution was used to stop the destaining reaction. After washing with water, the tissue sections were allowed to stand in 5% phosphotungstic acid aqueous solution (Alfa Aesar, Ward Hill, Mass.) for 1 h. […] The ratio of the blue-stained fiber area to the total tissue area of each photographed image was quantified to calculate a fibrosis-positive area ratio. […]

unsorted HuH-7 cells = experiment: Mice subcutaneously transplanted with unsorted HuH-7 cells; type: in vivo; conditions: mice transplanted with unsorted HuH-7 cells instead of CD44-positive HuH-7 cells
Text: The effect of treating malignant tumors may be evaluated by imaging, endoscopic examination, biopsy, or detection of a malignant tumor marker. In addition, the effect of treating cancer stem cells may be evaluated by imaging, endoscopic examination, biopsy, or detection of a cancer stem cell marker. In addition, the effect of treating fibrosis may be evaluated by imaging, endoscopic examination, biopsy, or detection of a fibrosis marker. […] At this time, the level of a marker after administration of a therapeutic drug may be 0.7, 0.5, 0.3, or 0.1 times the level before the administration (or of a control). […] At this time, the number of marker-positive cells after administration of the therapeutic drug may be 0.7, 0.5, 0.3, or 0.1 times the number before the administration (or of a control). Note that in Example 6 below, the therapeutic effect was evaluated using mice in which CD44-positive HuH-7 cells had been subcutaneously transplanted. The present inventors also replaced the above CD44-positive HuH-7 cells by unsorted HuH-7 cells.

Compound	inhibitory effect on cancer stem cells compared with IC-2 [1]	fibrosis area (Azan staining) (liver fibrosis)	effect of treating a malignant tumor (unsorted HuH-7 cells)
COc1ccc(COc2ccc(CNC(=O)N3CCC(=O)N4C(Cc5ccccc5)C(=O)N(Cc5cccc6ccccc56)CC34)cc2)cc1 (stereo not drawn) [IC-2-OPMB]	more potent inhibitory effect on cancer stem cells than IC-2		
O=C1C(Cc2ccccc2)N2C(=O)CCN(C(=O)NCc3ccccc3)C2CN1Cc1cccc2ccccc12 (stereo not drawn) [IC-2]		decrease more than that of the vehicle group	exhibits an effect of treating a malignant tumor
